The nature of series [1]: Pharmacokinetic study after a single oral administration to mice. To be noted: for cmax / tmax: single oral 100 mg/kg in 0.5% methylcellulose; for clast: concentration at last sampling time point; for AUC0-inf: extrapolated to infinity; for tlast: time of last sampling time point; for AUC0-t: time zero to tlast. It is filed as in vivo. The protocol: The aim of the study was to evaluate pharmacokinetic (PK) properties of five different batches including anhydrates and monohydrates of the crystal form A of compound 1a (cf. Table 1 in Example 5) after a single oral administration to mice. Three of the forms were anhydrous and two were monohydrates.
Compound 1a was administered as a suspension of 0.5% methyl cellulose (Sigma-Aldrich) in water at a dose of 100 mg/kg (10 ml/kg) by oral gavage to non-fasted female Balb/c mice (n=3).
Blood was collected by decapitation at 0.5, 1, 2, 4, 8, 12, 24, and 48 h after administration. Blood plasma was isolated by centrifugation at 4° C. (20,000×g for 10 min), transferred to microtubes containing lithium-heparin and frozen in aliquots at −70° C. until assayed by mass-spectrometry. Mean plasma concentration-time profiles (semi-logarithmic) of the five polymorphic crystal forms of compound 1a are shown in FIG. 6.
For PK evaluation, summary statistics and plotting of concentration/time curves, all values below the lower limit of quantification (LLOQ) were set to zero.

A further series has as its system RBL-2H3 cells. The experiment in a line: Maximum tolerated concentration (cytotoxicity by lactate dehydrogenase release). It is filed as cell-based, Rat. The following applies: for MTC (maximum tolerated concentration): highest concentration not causing cytotoxicity (LDH release), RBL-2H3 cells; for SI (safety index): ratio between MTC and IC50. An excerpt: The safety index (SI) of a test compound is the ratio between the maximum tolerated concentration and the IC50 and is used as a measure of the relative safety of the test compound.
Background: LDH leaks from cells whose membrane has failed.

[2] abbreviates: female Balb/c mice, plasma, 100 mg/kg.
Where [3] appears, read: female Balb/c mice, single oral 100 mg/kg, 100 mg/kg.
The mark [4] stands for this setting: female Balb/c mice, single oral 100 mg/kg, terminal half-life, 100 mg/kg.
Where [5] appears, read: female Balb/c mice, single oral 100 mg/kg.

Read-outs that look alike come from different tables or passages of the source.

By MRT is commonly meant the average time that molecules of a dose stay in the body. The half-life is how long it takes for the measured level to halve. A higher half-life goes with slow decline.

For `CCCCCCCCCCCCCCCCN(C)CC(O)CS(=O)(=O)O` (centres unmarked) [2208-CF/1, 2-hydroxy-3-(N-methylhexadecylammonio)propane-sulfonate], the overall exposure result in series [1] (compared among the five forms, single oral 100 mg/kg) is “highest”. Moreover, in series [1] (setting [2]), the cmax worked out at 1003 ng/mL and the tmax was determined as 1.0 h. In addition, in series [1] (setting [3]), the mean residence time MRT stood at 5.0 h, the clast was determined as 1.1 ng/mL, the AUC0-inf is 4412 ng·h/mL and the tlast stood at 48.0 h. The AUC0-t in series [1] (setting [3]) was 4400 ng·h/mL. The same compound returned a t1/2 in series [1] (setting [4]) of 7.3 h.

With `CCCCCCCCCCCCCCCCN(C)CC(O)CS(=O)(=O)O` (centres unmarked) [KP-0726.11, 2-hydroxy-3-(N-methylhexadecylammonio)propane-sulfonate], the “second plasma peak (time after administration)” value in series [1] (setting [5]) was determined as 8 h. In series [1] (setting [2]), this compound gave a cmax of 759 ng/mL and a tmax of 1.0 h. In series [1] (setting [3]), the mean residence time MRT stood at 5.5 h, the clast stood at 1.2 ng/mL, the AUC0-inf is 3758 ng·h/mL and the tlast was determined as 48.0 h. This compound displayed an AUC0-t in series [1] (setting [3]) of 3744 ng·h/mL. The compound further showed a t1/2 in series [1] (setting [4]) of 8.2 h.

Turning to `CCCCCCCCCCCCCCN(C)CC(O)CS(=O)(=O)O` (centres unmarked) [Compound 1b, 2-hydroxy-3-(N-methyltetradecylammonio)propanesulfonate], in the series with RBL-2H3 cells, the “MTC (maximum tolerated concentration)” value turned out to be 100 µM and the “SI (safety index)” value was 19.6.

For `CCCCCCCCCCCCCCCCN(C)CC(O)CS(=O)(=O)O` (centres unmarked) [TN-0382.11, 2-hydroxy-3-(N-methylhexadecylammonio)propane-sulfonate], the “second plasma peak (time after administration)” value in series [1] (setting [5]) came to 8 h. In series [1] (setting [2]), this compound displayed a cmax of 627 ng/mL and a tmax of 1.0 h. Moreover, in series [1] (setting [3]), the mean residence time MRT is on record as 5.9 h, the clast was 3.4 ng/mL, the AUC0-inf is 3547 ng·h/mL and the tlast is recorded as 24.0 h. For the same compound, the AUC0-t in series [1] (setting [3]) worked out at 3535 ng·h/mL.

For `CCCCCCCCCCCCCC[N+](C)(C)CC(CS(=O)(=O)[O-])OC(C)=O` (centres unmarked) [Compound 1e, 2-acetoxy-3-(N,N-dimethyltetradecylammonio)propanesulfonate], in the series on RBL-2H3 cells, the “MTC (maximum tolerated concentration)” value came to 100 µM and the “SI (safety index)” value amounted to 25.6.

Regarding `CCCCCCCCCCCCCCCCN(C)CC(O)CS(=O)(=O)O` (centres unmarked) [KP-0722.11, 2-hydroxy-3-(N-methylhexadecylammonio)propane-sulfonate], in series [1] (setting [2]), the cmax came out at 571 ng/mL and the tmax came to 2.0 h. In series [1] (setting [3]), the MRT turned out to be 4.8 h, the clast was determined as 3.8 ng/mL, the AUC0-inf was 3179 ng·h/mL and the tlast was 24.0 h. Besides, the AUC0-t in series [1] (setting [3]) was 3162 ng·h/mL.

In series [1] (setting [2]), `CCCCCCCCCCCCCCCCN(C)CC(O)CS(=O)(=O)O` (centres unmarked) [2338-CF/30, 2-hydroxy-3-(N-methylhexadecylammonio)propane-sulfonate] had a tmax of 1.0 h. Moreover, in series [1] (setting [3]), the clast was 1.8 ng/mL and the tlast was determined as 48.0 h. Moreover, the cmax in series [1] (female, Balb/c, mouse, plasma, po, 100 mg/kg, female Balb/c mice, plasma, read-out: cmax) worked out at 1060 ng/mL. For the same compound, the AUC0-inf in series [1] (female, Balb/c, mouse, plasma, po, 100 mg/kg, female Balb/c mice, single oral 100 mg/kg, read-out: AUC0-inf) is 3140 ng·h/mL. Besides, the MRT in series [1] (female, Balb/c, mouse, plasma, po, 100 mg/kg, female Balb/c mice, single oral 100 mg/kg, read-out: MRT) was found to be 5.5 h. Moreover, the half-life in series [1] (female, Balb/c, mouse, plasma, po, 100 mg/kg, female Balb/c mice, single oral 100 mg/kg, terminal half-life) was 9.9 h. Moreover, in series [1] (female, Balb/c, mouse, plasma, po, 100 mg/kg, female Balb/c mice, single oral 100 mg/kg, read-out: AUC0-t), the AUC0-t is 3120 ng·h/mL.

As for `CCCCCCCCCCCCCC[N+](C)(C)CC(CS(=O)(=O)[O-])OC` (centres unmarked) [Compound 1d, 2-methoxy-3-(N,N-dimethyl-N-tetradecylammonio)-propane-1-sulfonate], in the series with RBL-2H3 cells, the “MTC (maximum tolerated concentration)” value was 75 µM and the “SI (safety index)” value came to 22.7.

The values are drawn from US11453642B2, “Oxygenated amino- or ammonium-containing sulfonic acid, phosphonic acid and carboxylic acid derivatives and their medical use” (GRI BIO, INC., priority 2011, dated 2022).
